Measured values reported in ChEMBL document CHEMBL5649166, “RIP3 induces apoptosis independent of pronecrotic kinase activity” (Mol Cell, 2014).

Experiments:
[1] = target: Serine/threonine-protein kinase PAK 5 (Homo sapiens) (UniProt Q9P286); test: Residual activity of human PAK5 using RRRLSFAEPG as substrate at 1 uM in presence of 32P-ATP by Hotspot assay relative to control
[2] = target: T1, Dual specificity mitogen-activated protein kinase kinase 6 (Homo sapiens) (UniProt P52564); test: Inhibition of human MKK6 using p38a (K53A) as substrate at 1 uM in presence of 32P-ATP by Hotspot assay relative to control; values are per cent of control
T1 sequence (whole entry): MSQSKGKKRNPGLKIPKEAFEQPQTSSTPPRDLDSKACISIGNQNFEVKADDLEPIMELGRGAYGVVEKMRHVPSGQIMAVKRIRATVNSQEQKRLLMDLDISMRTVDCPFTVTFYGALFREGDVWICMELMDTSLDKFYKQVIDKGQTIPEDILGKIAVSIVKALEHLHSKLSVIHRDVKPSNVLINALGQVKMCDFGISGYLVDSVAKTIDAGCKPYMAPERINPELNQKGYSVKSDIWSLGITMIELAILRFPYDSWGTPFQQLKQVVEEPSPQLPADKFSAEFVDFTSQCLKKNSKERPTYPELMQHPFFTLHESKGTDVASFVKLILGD

[3] = target: RAF proto-oncogene serine/threonine-protein kinase (Homo sapiens) (UniProt P04049); test: Inhibition of human RAF1 using MEK1 (K97R) as substrate at 1 uM in presence of 32P-ATP by Hotspot assay relative to control; values are per cent of control
Chain of RAF proto-oncogene serine/threonine-protein kinase (Homo sapiens) (P04049 whole entry): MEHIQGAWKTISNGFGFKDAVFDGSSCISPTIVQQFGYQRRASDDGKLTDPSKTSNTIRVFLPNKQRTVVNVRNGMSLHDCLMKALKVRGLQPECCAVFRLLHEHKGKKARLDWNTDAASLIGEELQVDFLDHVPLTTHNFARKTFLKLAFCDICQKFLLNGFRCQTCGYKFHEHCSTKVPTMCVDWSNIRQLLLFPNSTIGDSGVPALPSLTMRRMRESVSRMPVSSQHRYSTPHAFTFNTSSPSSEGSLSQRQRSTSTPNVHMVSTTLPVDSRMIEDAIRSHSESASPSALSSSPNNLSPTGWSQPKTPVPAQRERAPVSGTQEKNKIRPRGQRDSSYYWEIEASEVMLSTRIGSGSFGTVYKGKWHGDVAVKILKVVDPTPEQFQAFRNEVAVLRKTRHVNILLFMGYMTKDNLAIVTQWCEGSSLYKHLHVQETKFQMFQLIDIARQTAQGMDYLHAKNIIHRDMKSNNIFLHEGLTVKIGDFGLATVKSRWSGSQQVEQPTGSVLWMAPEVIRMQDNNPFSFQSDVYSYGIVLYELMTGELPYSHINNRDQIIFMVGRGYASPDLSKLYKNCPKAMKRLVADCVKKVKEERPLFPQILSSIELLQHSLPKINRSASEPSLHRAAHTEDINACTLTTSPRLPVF

[4] = target: MAP kinase-activated protein kinase 3 (Homo sapiens) (UniProt Q16644); test: Inhibition of human MAPKAPK3 using KKLNRTLSVA as substrate at 1 uM in presence of 32P-ATP by Hotspot assay relative to control; values are per cent of control
Chain of MAP kinase-activated protein kinase 3 (Homo sapiens) (Q16644 whole entry, looked up): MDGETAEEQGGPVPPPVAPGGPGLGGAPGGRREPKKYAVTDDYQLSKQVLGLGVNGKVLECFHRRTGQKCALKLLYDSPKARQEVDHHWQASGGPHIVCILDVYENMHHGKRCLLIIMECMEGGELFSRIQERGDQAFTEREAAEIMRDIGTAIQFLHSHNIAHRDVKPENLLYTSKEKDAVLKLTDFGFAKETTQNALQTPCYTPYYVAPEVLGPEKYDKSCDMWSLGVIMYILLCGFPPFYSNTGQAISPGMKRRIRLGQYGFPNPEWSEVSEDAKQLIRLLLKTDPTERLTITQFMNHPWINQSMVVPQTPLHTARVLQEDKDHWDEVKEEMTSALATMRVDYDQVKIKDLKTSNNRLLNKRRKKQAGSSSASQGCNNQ

[5] = target: Protein kinase C delta type (Homo sapiens) (UniProt Q05655); test: Inhibition of human PKCd using ERMRPRKRQGSVRRRV as substrate at 1 uM in presence of 32P-ATP by Hotspot assay relative to control; values are per cent of control
Chain of Protein kinase C delta type (Homo sapiens) (Q05655 whole entry, looked up): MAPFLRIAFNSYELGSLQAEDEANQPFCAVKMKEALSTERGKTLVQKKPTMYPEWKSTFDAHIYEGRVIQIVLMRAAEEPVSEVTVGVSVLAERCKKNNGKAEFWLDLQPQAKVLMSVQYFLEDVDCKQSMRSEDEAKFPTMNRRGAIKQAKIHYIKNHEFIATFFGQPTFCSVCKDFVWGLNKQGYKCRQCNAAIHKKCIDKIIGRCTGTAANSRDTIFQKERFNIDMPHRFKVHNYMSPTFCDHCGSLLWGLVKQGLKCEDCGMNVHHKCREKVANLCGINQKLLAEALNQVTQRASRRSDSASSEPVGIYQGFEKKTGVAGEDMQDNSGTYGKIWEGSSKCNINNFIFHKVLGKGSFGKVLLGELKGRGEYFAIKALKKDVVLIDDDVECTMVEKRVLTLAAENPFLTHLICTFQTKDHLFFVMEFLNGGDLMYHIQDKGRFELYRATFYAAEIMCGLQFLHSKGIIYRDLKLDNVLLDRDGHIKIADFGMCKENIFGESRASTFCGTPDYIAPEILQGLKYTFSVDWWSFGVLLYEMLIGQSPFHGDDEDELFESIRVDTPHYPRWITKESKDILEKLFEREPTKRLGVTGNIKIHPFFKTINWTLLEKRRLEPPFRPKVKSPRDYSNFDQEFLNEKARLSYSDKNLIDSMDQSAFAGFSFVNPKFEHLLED

[6] = target: Tyrosine-protein kinase Blk (Homo sapiens) (UniProt P51451); test: Inhibition of human BLK using poly[Glu:Tyr] (4:1) as substrate at 1 uM in presence of 32P-ATP by Hotspot assay relative to control; values are per cent of control
Chain of Tyrosine-protein kinase Blk (Homo sapiens) (P51451 2-505 limits assumed): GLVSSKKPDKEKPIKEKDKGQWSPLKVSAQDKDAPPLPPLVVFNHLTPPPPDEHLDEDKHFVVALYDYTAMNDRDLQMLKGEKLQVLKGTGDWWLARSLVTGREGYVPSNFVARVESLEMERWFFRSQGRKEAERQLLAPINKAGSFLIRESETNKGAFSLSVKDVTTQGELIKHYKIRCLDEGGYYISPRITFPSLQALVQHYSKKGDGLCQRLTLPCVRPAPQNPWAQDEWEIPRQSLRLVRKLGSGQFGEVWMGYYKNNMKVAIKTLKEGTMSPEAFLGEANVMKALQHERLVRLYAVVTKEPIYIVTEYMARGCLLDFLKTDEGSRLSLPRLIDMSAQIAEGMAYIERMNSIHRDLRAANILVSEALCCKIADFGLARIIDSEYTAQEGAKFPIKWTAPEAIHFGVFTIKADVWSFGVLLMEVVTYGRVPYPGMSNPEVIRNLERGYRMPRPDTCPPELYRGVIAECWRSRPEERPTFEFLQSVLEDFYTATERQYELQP

[7] = target: Mitogen-activated protein kinase kinase kinase 8 (Homo sapiens) (UniProt P41279); test: Inhibition of human COT1/MAP3K8 using MEK1 (K97R) as substrate at 1 uM in presence of 32P-ATP by Hotspot assay relative to control; values are per cent of control
Chain of Mitogen-activated protein kinase kinase kinase 8 (Homo sapiens) (P41279 whole entry): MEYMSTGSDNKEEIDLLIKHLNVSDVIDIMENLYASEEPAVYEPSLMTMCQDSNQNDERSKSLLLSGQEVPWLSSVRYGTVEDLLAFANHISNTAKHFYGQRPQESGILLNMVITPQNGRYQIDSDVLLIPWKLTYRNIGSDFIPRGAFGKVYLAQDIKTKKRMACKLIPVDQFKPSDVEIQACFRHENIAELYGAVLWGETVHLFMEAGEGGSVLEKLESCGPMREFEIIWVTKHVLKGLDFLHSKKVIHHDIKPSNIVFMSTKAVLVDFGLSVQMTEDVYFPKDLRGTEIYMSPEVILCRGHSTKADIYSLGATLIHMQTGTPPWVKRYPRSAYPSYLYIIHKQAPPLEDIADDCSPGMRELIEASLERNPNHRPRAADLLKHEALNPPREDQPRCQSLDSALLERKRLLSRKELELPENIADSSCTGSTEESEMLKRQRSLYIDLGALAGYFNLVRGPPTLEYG

Homo sapiens = species on record: Homo sapiens; test: Inhibition of human CDK2/cyclin A using RB Protein as substrate at 1 uM in presence of 32P-ATP by Hotspot assay relative to control; values are per cent of control
[8] = target: T2, Interleukin-1 receptor-associated kinase 4 (Homo sapiens) (UniProt Q9NWZ3); test: Inhibition of human IRAK4 using myelin basic protein as substrate at 1 uM in presence of 32P-ATP by Hotspot assay relative to control; values are per cent of control
T2 sequence (whole entry): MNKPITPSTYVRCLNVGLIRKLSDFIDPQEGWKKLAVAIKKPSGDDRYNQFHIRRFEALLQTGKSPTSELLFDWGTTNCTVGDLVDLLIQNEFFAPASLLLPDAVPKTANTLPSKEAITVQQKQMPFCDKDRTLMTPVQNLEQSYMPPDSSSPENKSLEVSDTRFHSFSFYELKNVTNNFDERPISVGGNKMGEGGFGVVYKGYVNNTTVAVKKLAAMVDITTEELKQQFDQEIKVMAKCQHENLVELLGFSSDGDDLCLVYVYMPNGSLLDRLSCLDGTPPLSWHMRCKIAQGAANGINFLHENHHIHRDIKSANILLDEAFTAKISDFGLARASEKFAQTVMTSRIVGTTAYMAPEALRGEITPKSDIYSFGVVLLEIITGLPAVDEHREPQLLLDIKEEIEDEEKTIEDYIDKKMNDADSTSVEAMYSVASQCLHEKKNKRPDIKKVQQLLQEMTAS

[9] = target: T3, 3-phosphoinositide-dependent protein kinase 1 (Homo sapiens) (UniProt O15530); test: Inhibition of human PDK1/PDPK1 using KTFCGTPEYLAPEVRREPRILSEEEQEMFRDFDYIADWC as substrate at 1 uM in presence of 32P-ATP by Hotspot assay relative to control; values are per cent of control
T3 sequence (whole entry): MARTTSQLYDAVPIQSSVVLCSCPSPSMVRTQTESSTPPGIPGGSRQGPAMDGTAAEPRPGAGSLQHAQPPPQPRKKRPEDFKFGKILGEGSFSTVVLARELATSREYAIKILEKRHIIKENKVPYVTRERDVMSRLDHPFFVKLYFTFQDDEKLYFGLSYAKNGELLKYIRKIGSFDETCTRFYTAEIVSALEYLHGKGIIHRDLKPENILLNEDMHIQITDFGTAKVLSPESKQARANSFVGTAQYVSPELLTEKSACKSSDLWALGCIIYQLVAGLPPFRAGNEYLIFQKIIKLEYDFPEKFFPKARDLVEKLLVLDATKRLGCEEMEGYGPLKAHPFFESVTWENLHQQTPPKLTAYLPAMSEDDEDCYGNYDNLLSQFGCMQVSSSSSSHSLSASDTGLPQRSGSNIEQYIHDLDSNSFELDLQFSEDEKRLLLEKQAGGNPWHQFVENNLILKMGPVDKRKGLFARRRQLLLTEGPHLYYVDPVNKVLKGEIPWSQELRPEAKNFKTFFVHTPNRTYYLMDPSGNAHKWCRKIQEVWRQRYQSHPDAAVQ

Chain of Serine/threonine-protein kinase PAK 5 (Homo sapiens) (Q9P286 whole entry, looked up): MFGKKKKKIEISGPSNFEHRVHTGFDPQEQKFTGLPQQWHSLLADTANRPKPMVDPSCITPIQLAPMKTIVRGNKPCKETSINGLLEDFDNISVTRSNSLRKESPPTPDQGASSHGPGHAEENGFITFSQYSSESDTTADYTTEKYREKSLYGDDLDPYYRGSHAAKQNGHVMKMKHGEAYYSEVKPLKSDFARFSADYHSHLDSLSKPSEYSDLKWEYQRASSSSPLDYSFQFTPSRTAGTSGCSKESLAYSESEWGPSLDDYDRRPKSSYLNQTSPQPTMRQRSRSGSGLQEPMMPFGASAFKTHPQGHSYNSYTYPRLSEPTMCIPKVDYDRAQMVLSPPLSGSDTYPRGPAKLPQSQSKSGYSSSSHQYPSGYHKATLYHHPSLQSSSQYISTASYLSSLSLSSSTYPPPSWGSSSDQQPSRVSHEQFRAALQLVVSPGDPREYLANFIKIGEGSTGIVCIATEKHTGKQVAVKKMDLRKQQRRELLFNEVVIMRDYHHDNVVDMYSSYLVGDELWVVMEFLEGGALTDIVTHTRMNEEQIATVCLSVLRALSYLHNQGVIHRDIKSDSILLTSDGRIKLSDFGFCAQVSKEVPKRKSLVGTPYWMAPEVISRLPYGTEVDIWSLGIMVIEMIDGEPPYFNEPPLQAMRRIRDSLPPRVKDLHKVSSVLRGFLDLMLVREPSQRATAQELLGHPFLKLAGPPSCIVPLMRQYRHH

SMILES	residual activity [1] [%]	residual activity [2] [%]	residual activity [3] [%]	residual activity [4] [%]	residual activity [5] [%]	residual activity [6] [%]	residual activity [7] [%]	residual activity (Homo sapiens) [%]	residual activity [8] [%]	residual activity [9] [%]
CNC(=O)c1ccc2c(c1)ncn2-c1ccc(CC(=O)OC(C)(C)C)cc1	95.7	98.5	91.3	98	90.1	73.9	108	101	102	100
Cc1cc(-c2cnc(N)c3c(-c4ccc5scnc5c4)csc23)n(C)n1	99.5	92.9	50.5	90.7	60.4	39.3	106	86	99.7	101
CC(C)S(=O)(=O)c1ccc2nccc(Nc3ccc4scnc4c3)c2c1	105	91.3	54.1	98.9	86.3	62.8	85.2	97.2	97.5	98.6
